The values below are quoted from earlier work in patent publication US7771760B2, “Oils of capsaicinoids and methods of making and using the same” (NeurogesX, Inc., priority 2005, dated 2010).

SMILES strings stand for the structures.

In the case of `COc1cc(CNC(=O)CCCC/C=C/C(C)C)ccc1O` [capsaicin], for the setting “benzene, alcohol, ketone, ether and paraffin oils”, the “solubility in organic solvents” value is “soluble”. Under “cold water”, the “solubility in cold water” value is recorded as “sparingly soluble”.
